US10221178B2, “Purine inhibitors of human phosphatidylinositol 3-kinase delta” (MERCK SHARP & DOHME CORP., priority 2015, dated 2019)

Experiments:
[1] = target: PI3Kalpha (Homo sapiens (Human), UniProt P42336); test: HTRF PI3K biochemical assay, alpha isoform (selectivity versus PI3Kalpha); conditions: relative ratio (PI3K-alpha IC50 value/PI3K-delta IC50 value); form screened: Neutral
From the text: (§1) HTRF PI3K Biochemical Assay to Measure Intrinsic Potency of Compound Inhibitors
(§2) The PI3-Kinase biochemical assays were developed to measure the intrinsic potency and compound dependent inhibition of the alpha, beta, delta, and gamma PI3K isoform enzymes.
(§3) This assay was developed and further optimized from a kit produced by Upstate (Millipore catalog #33-047) and has been configured for HTS (high throughput screening) and SAR screening. Briefly, this procedure exploits the exquisite specificity and high affinity binding of enzyme reaction substrate phosphatidyl(3,4,5)triphosphate (PIP3) to the GRP1 pleckstrin homology (PH) domain to generate the signal. In the absence of PIP3, an HTRF (Homogeneous Time-Resolved Fluorescence energy transfer) complex is formed consisting of europium (Eu)-labeled anti-GST, GSTtagged GRP1-PH domain, biotin-PIP3 and streptavidin conjugated APC. The native PIP3 produced by PI3-Kinase activity disrupts in a competitive manner the biotin-PIP3 from the PH domain, resulting in the loss of energy transfer (HTRF complex) and a decrease in the signal. The format of this assay is the same for all 4 isoforms of PI3K; the differences lie in the concentration of enzyme used to achieve robust assay window. The alpha, beta, and delta assays are run at 0.5, 1, and 0.3 nM enzymes and the gamma assay is run at 5 nM enzyme. The ATP concentration is 100 uM in the alpha, beta, and delta assays and 50 uM ATP in the gamma assay. All reactions are run at 5 uM PIP2.
(§4) Compounds are serially diluted (3-fold in 100% DMSO) across a 384-well polypropylene source plated from column 3 to column 12 and column 13 to column 22, to yield 10 concentration dose response for each test compound. Columns 1, 2, 23 and 24 contain either only DMSO or pharmacological known control inhibitor. Once titrations are made, 2.5 nL of the compounds on 384 well plates are reformatted and transferred by acoustic dispense in quadruplicates to a 1536 assay plate (Greiner) to assay across all four PI3K isoform enzymes.
(§5) The PI3-Kinase biochemical assay was optimized using the HTRF kit provided by Upstate (Millipore). The assay kit contains six reagents: 1) 4× Reaction Buffer; 2) native PIP2 (substrate); 3) Stop (EDTA); 4) Detection Mix A (Streptavidin-APC); 5) Detection Mix B (Eu-labeled Anti-GST plus GST-tagged PH-domain); 6) Detection Mix C. In addition, the following items were obtained or purchased; PI3Kinase (alpha 14-602, beta 14-603, gamma 14-558 and delta 14-604 from Upstate; Millipore), dithiothreitol (Sigma, D-5545), Adenosine-5′ triphosphate (InVitrogen, Cat#AS001A), native PIP3 (PI(3,4,5)P3, diC8, H^+, CELLSIGNALS, INC. Cat #907) DMSO (Sigma, 472301).
PI3Kinase Reaction Buffer is prepared by dilution the stock 1:4 with de-ionized water. DTT, PIP2 and Biotin-PIP3 were added to 1536 assay plate at a final concentration of 5 mM, […] on the day of use. Enzyme addition and compound pre-incubation are initiated by the addition of 1.25 ul of PI3K (at twice its final concentration) in the 1× reaction buffer to all wells using a BioRaptor. Plates are incubated at RT for 15 minutes. Reactions are initiated by addition of 1.25 ul of 2× substrate solution (PIP2 and ATP in 1× reaction buffer) using BioRaptor. Plates are incubated in humidified chamber at RT for one hour. Reactions are quenched by addition of 0.625 uL of stop solution to all wells using the BioRaptor. The quenched reactions are then processed to detect product formation by adding 0.625 uL of Detection Solution to all wells using the BioRaptor (Detection mix C, Detection Mix A, and Detection Mix B combined together in an 18:1:1 ratio prepared 2 hours prior to use). Following a one hour incubation in the dark, the HTRF signal is measured on the Envision plate reader set for 330 nm excitation and dual emission detection at […]. […]

[2] = target: PI3Kdelta (Homo sapiens (Human), UniProt O00329); test: HTRF PI3K biochemical assay, delta isoform; conditions: 0.3 nM enzyme, 100 uM ATP, 5 uM PIP2, form screened: Neutral
Chain of PI3Kdelta (O00329 whole entry, canonical isoform): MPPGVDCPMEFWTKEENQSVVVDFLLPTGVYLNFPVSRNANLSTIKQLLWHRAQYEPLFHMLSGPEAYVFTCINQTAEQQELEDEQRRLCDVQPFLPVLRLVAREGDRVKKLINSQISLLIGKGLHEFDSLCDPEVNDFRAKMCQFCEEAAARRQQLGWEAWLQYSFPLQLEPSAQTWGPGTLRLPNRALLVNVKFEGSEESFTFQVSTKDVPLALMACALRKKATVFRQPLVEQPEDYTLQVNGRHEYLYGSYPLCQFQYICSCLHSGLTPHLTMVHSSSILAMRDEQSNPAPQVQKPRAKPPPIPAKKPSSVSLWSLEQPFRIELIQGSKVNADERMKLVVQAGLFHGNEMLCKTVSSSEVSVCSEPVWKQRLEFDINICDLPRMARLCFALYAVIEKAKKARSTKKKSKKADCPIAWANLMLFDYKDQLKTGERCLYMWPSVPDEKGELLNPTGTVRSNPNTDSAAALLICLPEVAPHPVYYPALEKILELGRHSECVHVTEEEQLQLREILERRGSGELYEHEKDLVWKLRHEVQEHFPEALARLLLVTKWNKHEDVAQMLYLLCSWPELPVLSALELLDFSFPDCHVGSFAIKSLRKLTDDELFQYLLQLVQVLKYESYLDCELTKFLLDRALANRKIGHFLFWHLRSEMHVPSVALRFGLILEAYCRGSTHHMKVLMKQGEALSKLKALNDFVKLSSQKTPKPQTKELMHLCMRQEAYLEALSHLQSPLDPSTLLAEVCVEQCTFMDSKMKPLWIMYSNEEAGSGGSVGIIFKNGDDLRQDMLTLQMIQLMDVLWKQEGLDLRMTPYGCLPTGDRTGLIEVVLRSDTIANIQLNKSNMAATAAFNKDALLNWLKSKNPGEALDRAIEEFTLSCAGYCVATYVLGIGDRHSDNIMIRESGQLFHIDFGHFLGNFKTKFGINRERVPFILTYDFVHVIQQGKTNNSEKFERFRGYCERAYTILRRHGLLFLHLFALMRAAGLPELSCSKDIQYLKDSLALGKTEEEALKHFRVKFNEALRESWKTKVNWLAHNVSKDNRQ
Chain of PI3Kdelta (P27986 whole entry partner, canonical isoform): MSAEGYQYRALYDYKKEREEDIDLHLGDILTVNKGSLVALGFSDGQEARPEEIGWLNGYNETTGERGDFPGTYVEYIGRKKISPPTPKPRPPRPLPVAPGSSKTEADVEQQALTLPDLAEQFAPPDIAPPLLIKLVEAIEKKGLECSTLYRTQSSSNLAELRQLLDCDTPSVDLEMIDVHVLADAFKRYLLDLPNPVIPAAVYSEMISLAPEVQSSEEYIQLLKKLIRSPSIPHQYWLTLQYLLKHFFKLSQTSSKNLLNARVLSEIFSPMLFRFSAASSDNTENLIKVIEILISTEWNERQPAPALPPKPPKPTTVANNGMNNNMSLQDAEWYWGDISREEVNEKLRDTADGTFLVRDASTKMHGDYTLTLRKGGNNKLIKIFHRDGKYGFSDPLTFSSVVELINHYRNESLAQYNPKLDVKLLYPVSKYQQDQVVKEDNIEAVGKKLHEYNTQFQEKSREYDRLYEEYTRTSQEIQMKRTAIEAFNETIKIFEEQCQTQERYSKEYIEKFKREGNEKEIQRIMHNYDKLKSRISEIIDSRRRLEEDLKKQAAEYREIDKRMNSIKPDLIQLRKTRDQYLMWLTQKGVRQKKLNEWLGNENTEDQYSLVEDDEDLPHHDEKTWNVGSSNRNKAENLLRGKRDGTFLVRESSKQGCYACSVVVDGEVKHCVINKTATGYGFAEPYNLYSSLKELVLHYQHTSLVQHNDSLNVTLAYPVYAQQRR
From the text: as §1, §2, §3, §4, §5
PI3Kinase Reaction Buffer is prepared by dilution the stock 1:4 with de-ionized water. DTT, PIP2 and Biotin-PIP3 were added to 1536 assay plate at a final concentration of 5 mM, […] on the day of use. Enzyme addition and compound pre-incubation are initiated by the addition of 1.25 ul of PI3K (at twice its final concentration) in the 1× reaction buffer to all wells using a BioRaptor. Plates are incubated at RT for 15 minutes. Reactions are initiated by addition of 1.25 ul of 2× substrate solution (PIP2 and ATP in 1× reaction buffer) using BioRaptor. Plates are incubated in humidified chamber at RT for one hour. Reactions are quenched by addition of 0.625 uL of stop solution to all wells using the BioRaptor. The quenched reactions are then processed to detect product formation by adding 0.625 uL of Detection Solution to all wells using the BioRaptor (Detection mix C, Detection Mix A, and Detection Mix B combined together in an 18:1:1 ratio prepared 2 hours prior to use). Following a one hour incubation in the dark, the HTRF signal is measured on the Envision plate reader set for 330 nm excitation and dual emission detection at 620 nM (Eu) and 665 nM (APC).

Chain of PI3Kalpha (P42336 whole entry, canonical isoform): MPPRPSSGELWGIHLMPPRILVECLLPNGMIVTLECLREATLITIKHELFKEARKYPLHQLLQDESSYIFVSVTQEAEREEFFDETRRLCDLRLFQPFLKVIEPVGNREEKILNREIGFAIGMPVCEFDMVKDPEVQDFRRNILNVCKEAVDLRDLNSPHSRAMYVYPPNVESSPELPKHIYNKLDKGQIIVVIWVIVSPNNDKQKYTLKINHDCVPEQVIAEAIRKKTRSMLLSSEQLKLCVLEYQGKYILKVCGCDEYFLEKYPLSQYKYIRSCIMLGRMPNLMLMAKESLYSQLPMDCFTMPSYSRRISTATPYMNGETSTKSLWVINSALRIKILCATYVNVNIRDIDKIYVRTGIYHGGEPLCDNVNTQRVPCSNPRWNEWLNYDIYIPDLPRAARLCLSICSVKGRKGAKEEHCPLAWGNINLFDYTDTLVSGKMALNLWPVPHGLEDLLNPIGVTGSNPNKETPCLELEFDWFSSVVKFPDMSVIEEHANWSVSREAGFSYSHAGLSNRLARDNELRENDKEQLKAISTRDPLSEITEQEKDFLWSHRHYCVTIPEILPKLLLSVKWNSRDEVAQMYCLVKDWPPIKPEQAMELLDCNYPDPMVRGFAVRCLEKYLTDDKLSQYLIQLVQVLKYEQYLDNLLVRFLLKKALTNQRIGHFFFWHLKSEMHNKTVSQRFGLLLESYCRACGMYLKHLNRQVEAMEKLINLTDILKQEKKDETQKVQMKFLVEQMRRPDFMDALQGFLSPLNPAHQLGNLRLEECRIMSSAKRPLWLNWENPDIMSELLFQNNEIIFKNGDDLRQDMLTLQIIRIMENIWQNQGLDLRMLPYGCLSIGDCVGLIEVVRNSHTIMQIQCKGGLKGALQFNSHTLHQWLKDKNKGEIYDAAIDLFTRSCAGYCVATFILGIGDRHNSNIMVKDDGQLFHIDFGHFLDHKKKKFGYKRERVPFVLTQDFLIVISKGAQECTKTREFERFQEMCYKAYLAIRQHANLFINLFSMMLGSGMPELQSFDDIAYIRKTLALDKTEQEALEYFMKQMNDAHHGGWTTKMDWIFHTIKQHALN
Chain of PI3Kalpha (P27986 whole entry partner, canonical isoform): as the sequence (P27986 whole entry partner, canonical isoform) above

SMILES	Selectivity versus PI3Kalpha [1]	IC50 [2]
CC[C@H](Nc1ncnc2c1nc(-c1cnc(C)nc1)n2CC)C(=O)N1CC(OC)C1 [Compound 2-17, 9-ethyl-N-{(1S)-1-[(3-methoxyazetidin-1-yl)carbonyl]propyl}-8-(2-methylpyrimidin-5-yl)-9H-purin-6-amine]	>10	74 nM
CC[C@H](Nc1ncnc2c1nc(-c1cnc(C)nc1)n2CC)C(=O)N1CCSC1C (mixture of isomers) [Compound 2-24, 9-ethyl-8-(2-methylpyrimidin-5-yl)-N-{(1S)-1-[((S and R)-2-methyl-1,3-thiazolidin-3-yl)carbonyl]propyl}-9H-purin-6-amine]	>10	27 nM
CC[C@H](Nc1ncnc2c1nc(-c1cnc(C)nc1)n2CC)C(=O)N1CCOCC1(C)C [Compound 2-34, N-{(1S)-1-[(3,3-dimethylmorpholin-4-yl)carbonyl]propyl}-9-ethyl-8-(2-methylpyrimidin-5-yl)-9H-purin-6-amine]	>10	12 nM
CCn1c(-c2cnc(C)nc2)nc2c(N[C@H](CC(=O)N3C[C@@H](C)O[C@@H](C)C3)C(C)C)ncnc21 [Compound 2-58, N-[(1R)-3-[(cis)-2,6-dimethylmorpholin-4-yl]-1-(1-methylethyl)-3-oxopropyl]-9-ethyl-8-(2-methylpyrimidin-5-yl)-9H-purin-6-amine]	>10	290 nM
CC[C@H](Nc1ncnc2c1nc(-c1cnc(C)nc1)n2CC)C(=O)N1C[C@@H](C)O[C@@H](C)C1 [Compound 2-6, N-[(1S)-1-{[(cis)-2,6-dimethylmorpholin-4-yl]carbonyl}propyl]-9-ethyl-8-(2-methylpyrimidin-5-yl)-9H-purin-6-amine]	>10	6.1 nM
CCC(Oc1ncnc2c1nc(-c1cnn(CC)c1C)n2C)C(=O)N1CCCCC1 (racemic) [Compound 1-2, (R and S)-8-(1-ethyl-5-methyl-1H-pyrazol-4-yl)-9-methyl-6-[1-(piperidin-1-ylcarbonyl)propoxy]-9H-purine]	>10	240 nM
CC[C@H](Nc1ncnc2c1nc(C(F)F)n2CC)C(=O)N1C[C@@H](C)O[C@@H](C)C1 [Compound 2-4, 8-(difluoromethyl)-N-[(1S)-1-{[(cis)-2,6-dimethylmorpholin-4-yl]carbonyl}propyl]-9-ethyl-9H-purin-6-amine]	>10	99 nM
CCn1c(-c2cnc(C)nc2)nc2c(N[C@H](C(=O)N3C[C@@H](C)O[C@@H](C)C3)C3CC3)ncnc21 [Compound 2-40, N-{(1S)-1-cyclopropyl-2-[(cis)-2,6-dimethylmorpholin-4-yl]-2-oxoethyl}-9-ethyl-8-(2-methylpyrimidin-5-yl)-9H-purin-6-amine]	>10	4.1 nM
CCn1c(-c2cnc(C)nc2)nc2c(N[C@@H](C)CC(=O)N3CCCC3)ncnc21 [Compound 2-59, 9-ethyl-N-[(1S)-1-methyl-3-oxo-3-pyrrolidin-1-ylpropyl]-8-(2-methylpyrimidin-5-yl)-9H-purin-6-amine]	>10	63 nM
CC[C@H](Nc1ncnc2c1nc(-c1cnc(C)nc1)n2CC)C(=O)N1CCOCC12CCC2 [Compound 2-27, 9-ethyl-8-(2-methylpyrimidin-5-yl)-N-[(1S)-1-(8-oxa-5-azaspiro[3.5]non-5-ylcarbonyl)propyl]-9H-purin-6-amine]	>10	11 nM
CC[C@H](Nc1ncnc2c1nc(-c1cnc(C)nc1)n2CC)C(=O)N1CCOC(COC)C1 (stereo partly drawn) [Compound 2-35, 9-ethyl-N-[(1S)-1-{[2-(methoxymethyl)morpholin-4 yl]carbonyl}propyl]-8-(2-methylpyrimidin-5-yl)-9H-purin-6-amine]	>10	39 nM
CC[C@H](Nc1ncnc2c1nc(-c1cnc(C)nc1)n2CC)C(=O)N1C[C@H](C)O[C@@H](C)C1 (stereo in doubt) [Compound 2-36, N-[(1S)-1-{[(trans)-2,6-dimethylmorpholin-4-yl]carbonyl}propyl]-9-ethyl-8-(2-methylpyrimidin-5-yl)-9H-purin-6-amine]	>10	9.1 nM
CC[C@H](Nc1ncnc2c1nc(-c1cnc(C)nc1)n2CC)C(=O)N1CC(C(F)F)C1 [Compound 2-11, N-[(1S)-1-{[3-(difluoromethyl)azetidin-1-yl]carbonyl}propyl]-9-ethyl-8-(2-methylpyrimidin-5-yl)-9H-purin-6-amine]	>10	60 nM
CCn1c(-c2cnc(C)nc2)nc2c(N[C@H](CC(=O)N3CCCC3)C(C)C)ncnc21 [Compound 2-62, 9-ethyl-N-[(1R)-1-(1-methylethyl)-3-oxo-3-pyrrolidin-1-ylpropyl]-8-(2-methylpyrimidin-5-yl)-9H-purin-6-amine]	>10	100 nM
CCn1c(-c2cnc(C)nc2)nc2c(N[C@@H](CO)C(=O)N3C[C@@H](C)O[C@@H](C)C3)ncnc21 [Compound 2-47, (2S)-3-[(cis)-2,6-dimethylmorpholin-4-yl]-2-{[9-ethyl-8-(2-methylpyrimidin-5-yl)-9H-purin-6-yl]amino}-3-oxopropan-1-ol]	>10	12 nM
CCn1c(-c2cnc(C)nc2)nc2c(N[C@@H](CC(C)C)C(=O)N3C[C@@H](C)O[C@@H](C)C3)ncnc21 [Compound 2-44, N-[(1S)-1-{[(cis)-2,6-dimethylmorpholin-4-yl]carbonyl}-3-methylbutyl]-9-ethyl-8-(2-methylpyrimidin-5-yl)-9H-purin-6-amine]	>10	140 nM
CCC(Nc1ncnc2c1nc(-c1cnc(C)nc1)n2CC)C(=O)N1CCOCC1 (single isomer, unassigned) [Compound 1-8, (R or S)-9-ethyl-8-(2-methylpyrimidin-5-yl)-N-[1-(morpholin-4-ylcarbonyl)propyl]-9H-purin-6-amine]	>10	6.5 nM
CCn1c(-c2cnc(C)nc2)nc2c(N[C@@H](C)C(=O)N3C[C@@H](C)O[C@@H](C)C3)ncnc21 [Compound 2-39, N-{(1S)-2-[(cis)-2,6-dimethylmorpholin-4-yl]-1-methyl-2-oxoethyl}-9-ethyl-8-(2-methylpyrimidin-5-yl)-9H-purin-6-amine]	>10	12 nM
